Like-named read-outs stand apart in the source and are kept apart here.
Legend:
[1] = test system: SARS-CoV-2 (hCoV-19/Taiwan/4/2020); experiment: microbe, parasite or virus in culture; type: cell-based
in vitro = details: African green monkey, CC50 (μM); for CC50: Vero E6 cells
[2] = molecular target: Papain-like protease (nsp3) of SARS-CoV-2 (Severe acute respiratory syndrome coronavirus 2, UniProt P0DTD1); experiment: biochemical; type: biochemical; details: for inhibition at 100 µM: read-out: Inhibition % at 100 uM of compounds, Papain-like protease (nsp3)
SARS-CoV-2 [3] = experiment: Quantification of SARS-CoV-2 via antibody staining (viral NP protein) in Vero E6 cells; type: cell-based; details: for IC50: viral titer by antinucleocapsid antibody
[4] = Cytotoxicity study of compounds with Vero E6 cells (CCK-8); details: African green monkey, Vero E6 cells, CC50 (μM)
Vero E6 cells [5] = experiment: as above
SARS-CoV-2 [6] = experiment: In vivo anti-SARS-CoV-2 assay, lung virus load; details: female golden Syrian hamsters, intranasal infection day 0, oral twice a day 30 mg/kg/d for 3 d, n = 5
Vero E6 cells [7] = test system: Vero E6 cells
[8] = hamster, in vivo
[9] = molecular target: nsp7-nsp8-nsp12 complex (Rdrp) of SARS-CoV-2 (Severe acute respiratory syndrome coronavirus 2, UniProt P0DTD1); experiment: Activity assay for SARS-CoV-2 RNA-dependent RNA polymerase; type: biochemical
[10] = Severe acute respiratory syndrome coronavirus 2, Vero C1008, minimal dose that showed antiinfective effect after virus challenge, incubation 72 h (D3), Vero E6, read-out: CPE (μM) D3
[11] = minimal dose that showed antiinfective effect after virus challenge, incubation 120 h (D5), Vero E6, N.I. = no inhibition, dash = cytotoxicity was observed
[12] = 100 uM, FRET-based enzymatic assay, 3 independent experiments, N.I. = no inhibition
[13] = 100 PFU of SARS-CoV-2 (multiplicity of infection 0.025) in Vero E6 cells
[14] = Severe acute respiratory syndrome coronavirus 2, Vero C1008, 100 PFU of SARS-CoV-2 (multiplicity of infection 0.025) in Vero E6 cells
[15] = Severe acute respiratory syndrome coronavirus 2, Vero C1008, minimal dose that showed antiinfective effect after virus challenge, incubation 120 h (D5), Vero E6, N.I. = no inhibition, dash = cytotoxicity was observed, read-out: CPE (μM) D5
[16] = Severe acute respiratory syndrome coronavirus 2, Vero C1008, 72 h, read-out: CPE (μM) D3
[17] = Severe acute respiratory syndrome coronavirus 2, Vero C1008, 120 h, […], N.I. = no inhibition, dash = cytotoxicity was observed, read-out: CPE (μM) D5

Compound	minimal effective concentration [1, 10]	Inhibition % at 100 uM of compounds, Papain-like protease (nsp3) [2, 12]	IC50 (SARS-CoV-2 [3]; [13])	IC50 (SARS-CoV-2 [3]; [14])	minimal effective concentration [1, 15]	minimal effective concentration [1, 16]	minimal effective concentration [1, 17]	CC50 (in vitro)	other results
CC1=C(C(=O)OC(C)C)C(c2cccc([N+](=O)[O-])c2)C(C(=O)OC2CN(C(c3ccccc3)c3ccccc3)C2)=C(N)N1 (stereo not drawn) [Azelnidipine 10, Azelnidipine]	5 µM	N.I.	5.3 µM	5.29 µM					CPE (μM) D5 [1, 11]: N.I.; CC50 at 24 h (in vitro): 12.9 µM
CC(C)(C)NC(=O)N[C@H](C(=O)N1C[C@H]2[C@@H]([C@H]1C(=O)NC(CC1CCC1)C(=O)C(N)=O)C2(C)C)C(C)(C)C (stereo partly drawn) [Boceprevir 2, Boceprevir]	10 µM	N.I.	50.1 µM	> 50 µM	10 µM				
COc1ccc2cc1Oc1ccc(cc1)C[C@H]1c3c(cc4c(c3Oc3cc5c(cc3OC)CCN(C)[C@@H]5C2)OCO4)CCN1C [Cepharanthine 4, Cepharanthine]				2.8 µM		3.75 µM	7.5 µM		CC50 at 24 h (in vitro): 12.9 µM; inhibition at 100 µM [2, 12]: 31.9%
CCCCc1oc2ccc(NS(C)(=O)=O)cc2c1C(=O)c1ccc(OCCCN(CCCC)CCCC)cc1 [Dronedarone 12, Dronedarone]	7.5 µM	significant inhibition	4.5 µM	4.51 µM					CPE (μM) D5 [1, 11]: N.I.; CC50 at 24 h (in vitro): 12.1 µM; inhibition at 100 µM [2, 12]: 78.6%
CC[C@H]1CN2CCc3cc(OC)c(OC)cc3[C@@H]2C[C@@H]1C[C@H]1NCCc2cc(OC)c(OC)cc21 [Emetine 5, Emetine]			0.0004 µM	0.000397 µM		5 µM	10 µM	> 10 µM	
CC(C)(C)c1cc(C(C)(C)C)c(NC(=O)c2c[nH]c3ccccc3c2=O)cc1O [Ivacaftor 9, Ivacaftor]		N.I.		3.7 µM		5 µM			CPE (μM) D5 ([1]; […], N.I. = no inhibition, dash = cytotoxicity was observed): N.I.; CC50 at 24 h [4]: 12.9 µM
CC[C@H](C)[C@H]1O[C@]2(CC[C@@H]1C)C[C@@H]1C[C@@H](C/C=C(\C)[C@@H](O[C@H]3C[C@H](OC)[C@@H](O[C@H]4C[C@H](OC)[C@@H](O)[C@H](C)O4)[C@H](C)O3)[C@@H](C)/C=C/C=C3\CO[C@@H]4[C@H](O)C(C)=C[C@@H](C(=O)O1)[C@]34O)O2 [Ivermectin 6, Ivermectin]		N.I.		4.1 µM		2.5 µM		13.2 µM	cytotoxicity in the cell-based assay (Vero E6 cells [5]; Vero E6): high cytotoxicity
CO[C@@H]1[C@@H](OC)[C@H](C)[C@@](O)(CC(=O)O)O[C@H]1[C@H](C)[C@H]1O[C@@]2(CC[C@@](C)([C@H]3CC[C@@](C)([C@@H]4O[C@@H]([C@H]5O[C@](C)(O)[C@H](C)C[C@@H]5C)C[C@@H]4O[C@@H]4C[C@H](OC)[C@@H](OC)[C@H](C)O4)O3)O2)C[C@H](O)[C@H]1C [Maduramicin 15, Maduramicin]		N.I.	1.3 µM	1.32 µM		0.039 µM	0.117 µM	6.39 µM	selectivity index (antiviral effect vs cytotoxicity) (SARS-CoV-2 [3]; Vero E6, CC50 vs IC50): no selectivity
OC(c1cc(C(F)(F)F)nc2c(C(F)(F)F)cccc12)C1CCCCN1 (stereo not drawn) [Mefloquine 8, Mefloquine]	5 µM	N.I.	3.2 µM	3.24 µM	10 µM				lung virus load vs control (drugs) (SARS-CoV-2 [6]): significantly reduced viral load
CC[C@@]1([C@@H]2O[C@@H]([C@H]3O[C@@](O)(CO)[C@H](C)C[C@@H]3C)C[C@@H]2C)CC[C@H]([C@]2(C)CC[C@]3(C[C@H](O)[C@@H](C)[C@@H]([C@@H](C)[C@@H](OC)[C@H](C)C(=O)O)O3)O2)O1 [Monensin 14, Monensin]		N.I.	6.4 µM	6.38 µM		0.117 µM	2.5 µM	6.66 µM	selectivity index (antiviral effect vs cytotoxicity) (SARS-CoV-2 [3]; Vero E6, CC50 vs IC50): no selectivity; CC50 (Vero E6 cells [5]; Vero E6 cells): 6.6 µM
CO/N=C1\C[C@]2(C[C@@H]3C[C@@H](C/C=C(\C)C[C@@H](C)/C=C/C=C4\CO[C@@H]5[C@H](O)C(C)=C[C@@H](C(=O)O3)[C@]45O)O2)O[C@H](/C(C)=C/C(C)C)[C@H]1C [Moxidectin 7, Moxidectin]	5 µM	N.I.	3.1 µM	3.17 µM	10 µM				CC50 at 24 h (in vitro): 6.88 µM; cytotoxicity in the cell-based assay (Vero E6 cells [7]): high cytotoxicity; CC50 (Vero E6 cells [7]; African green monkey, 24 h): 6.9 µM
Cc1c(O)cccc1C(=O)N[C@@H](CSc1ccccc1)[C@H](O)CN1C[C@H]2CCCC[C@H]2C[C@H]1C(=O)NC(C)(C)C [Nelfinavir 1, Nelfinavir]	5 µM			3.3 µM	10 µM				inhibition at 100 µM [2, 12]: 3.5%; lung virus load vs control (drugs) (SARS-CoV-2 [6]): good antiviral effects; fold higher anti-SARS-CoV-2 activity than boceprevir in the cell-based assay (SARS-CoV-2 [3]; Vero E6): 15 fold; CC50 at 24 h [4]: 12.3 µM
OC1(c2ccc(Cl)c(C(F)(F)F)c2)CCN(CCCC(c2ccc(F)cc2)c2ccc(F)cc2)CC1 [Penfluridol 11, Penfluridol]	5 µM	N.I.	2.4 µM	2.41 µM	10 µM				CC50 at 24 h [4]: 12.9 µM
CC[C@@H](C(=O)[C@@H](C)[C@@H](O)[C@H](C)[C@@H]1O[C@@H]([C@@H](CC)C(=O)O)CC[C@@H]1C)[C@H]1O[C@]2(C=C[C@@H](O)[C@]3(CC[C@@](C)([C@H]4CC[C@](O)(CC)[C@H](C)O4)O3)O2)[C@H](C)C[C@@H]1C [Salinomycin 13, Salinomycin]			0.00048 µM	0.000479 µM		0.039 µM	0.156 µM	13.1 µM	inhibition at 100 µM [2]: 9.4%; body-weight change after 3-d treatment [8]: higher weight loss than the control group; lung virus load vs control (drugs) (SARS-CoV-2 [6]): no significant antiinfective effect; selectivity ratio (SARS-CoV-2 [3]; African green monkey, Vero E6, CC50 vs IC50, read-out: selectivity index (antiviral effect vs cytotoxicity)): > 100
Nc1nc(=S)c2ncn([C@@H]3O[C@H](COP(=O)(O)OP(=O)(O)OP(=O)(O)O)[C@@H](O)[C@H]3O)c2[nH]1 [TGTP, thioguanosine triphosphate]									inhibition against Rdrp in vitro [9]: no inhibition
Nc1nc2nc[nH]c2c(=S)[nH]1 [Thioguanine 3, Thioguanine]	1.25 µM		1.7 µM	1.67 µM	2.5 µM				lung virus load vs control (drugs) (SARS-CoV-2 [6]): no significant antiinfective effect; CC50 at 24 h [4]: 25.4 µM
